From patent publication US11897880B2, “7,8-dihydrobenzo[e]pyrido[3,4-c]azocine-2,5(3H,6H)-dione derivatives useful as a factor XIa inhibitors” (Janssen Pharmaceutica NV, priority 2021, dated 2024)
Read-outs that look alike come from different tables or passages of the source.

Experiments:
Factor XIa = Factor XIa (Homo sapiens, UniProt P03951); experiment: Factor XIa inhibition assay utilizing a fluorophore-quencher pair peptide substrate (FLINT); format: biochemical; conditions: for IC50: read-out: FXIa IC50; for Ki: read-out: FXIa Ki
Factor XIa, sequence (P03951 388-625 limits assumed): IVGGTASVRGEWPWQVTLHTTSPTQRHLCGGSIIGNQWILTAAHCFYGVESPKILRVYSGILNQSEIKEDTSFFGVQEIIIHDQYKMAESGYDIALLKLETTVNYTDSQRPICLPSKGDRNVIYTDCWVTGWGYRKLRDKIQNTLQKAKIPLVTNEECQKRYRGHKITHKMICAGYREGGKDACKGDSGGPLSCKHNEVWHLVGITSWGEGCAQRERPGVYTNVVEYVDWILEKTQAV
Factor XIa, sequence (P03951 19-387 partner limits assumed): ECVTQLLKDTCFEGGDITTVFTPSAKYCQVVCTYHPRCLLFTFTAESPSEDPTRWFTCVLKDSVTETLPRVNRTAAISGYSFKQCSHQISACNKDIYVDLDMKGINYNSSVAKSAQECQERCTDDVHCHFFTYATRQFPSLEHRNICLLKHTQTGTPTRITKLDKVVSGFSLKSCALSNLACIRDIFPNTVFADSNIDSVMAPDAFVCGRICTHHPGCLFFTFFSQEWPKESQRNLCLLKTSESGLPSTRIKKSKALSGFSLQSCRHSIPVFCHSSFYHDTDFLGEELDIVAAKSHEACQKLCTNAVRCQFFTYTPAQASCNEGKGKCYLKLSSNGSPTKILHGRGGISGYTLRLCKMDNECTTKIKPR
Method in brief: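 Enzyme preincubated 30 min at room temperature with compound (11-point 3-fold dilution, top 100 nM, 2% DMSO), then 15 μM 5Fam-KLTRAETV-K5Tamra substrate added. Buffer: 50 mM Tris pH 7.5, 100 mM NaCl, 5 mM CaCl2, 0.1 mg/mL BSA, 0.03% CHAPS. Fluorescence (485/520 nm) read kinetically over 30 min; IC50 from 4-parameter logistic fit.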

human plasma kallikrein = human plasma kallikrein (Homo sapiens, UniProt P03952); experiment: Kallikrein inhibition assay utilizing a quenched AMC peptide substrate (FLINT); format: biochemical; conditions: 30 min preincubation, 50 μM Z-Gly-Pro-Arg-AMC, 2 nM kallikrein
human plasma kallikrein, sequence (P03952 391-638 limits assumed): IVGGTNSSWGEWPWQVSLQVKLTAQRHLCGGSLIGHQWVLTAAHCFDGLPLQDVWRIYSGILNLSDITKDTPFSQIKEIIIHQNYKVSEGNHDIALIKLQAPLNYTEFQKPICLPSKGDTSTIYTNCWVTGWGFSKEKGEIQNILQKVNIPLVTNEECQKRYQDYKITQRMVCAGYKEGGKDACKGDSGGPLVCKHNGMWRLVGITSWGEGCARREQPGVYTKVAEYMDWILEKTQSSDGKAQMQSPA
human plasma kallikrein, sequence (P03952 20-390 partner limits assumed): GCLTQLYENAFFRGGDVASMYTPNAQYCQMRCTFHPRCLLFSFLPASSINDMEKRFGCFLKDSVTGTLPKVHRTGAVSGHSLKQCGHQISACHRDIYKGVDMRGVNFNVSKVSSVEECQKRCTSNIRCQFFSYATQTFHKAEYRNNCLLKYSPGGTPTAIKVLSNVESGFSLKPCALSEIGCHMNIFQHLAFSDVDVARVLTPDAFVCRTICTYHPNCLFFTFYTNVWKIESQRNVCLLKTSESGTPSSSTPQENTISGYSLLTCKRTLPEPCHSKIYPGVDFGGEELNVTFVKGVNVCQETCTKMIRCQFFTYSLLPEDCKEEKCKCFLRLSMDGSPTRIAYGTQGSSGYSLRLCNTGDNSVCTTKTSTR
Method in brief: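 Human plasma kallikrein (2 nM final) was preincubated 30 min at room temperature with compound (11-point 3-fold dilution, top 1 μM, 2% DMSO) in pH 7.5 Tris buffer with CaCl2, BSA and CHAPS. Z-Gly-Pro-Arg-AMC (50 μM final) fluorescence was read at 340/440 nm every 5 min for 30 min. IC50 came from a 4-parameter logistic fit.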

[1] = 30 min preincubation, 5Fam-KLTRAETV-K5Tamra substrate 15 μM final, kinetic reads
[2] = cells that print μM themselves in the nM column
[3] = cells that print μM themselves in the nM column, same assay conditions

Row | SMILES | IC50 (Factor XIa; [1]) [µM] | Ki (Factor XIa) [µM] | IC50 (human plasma kallikrein) [nM] | Ki (Factor XIa; [2]) [µM] | IC50 (Factor XIa; [3]) [µM]
1 | O=C1NC2(CC2)Cc2ccc(Cl)c(F)c2-c2cc(=O)n(C(CC3CC3)c3ncc(-c4ccncc4)[nH]3)cc21 (single isomer, unassigned) [Compound 66, (R*)-11-chloro-3-(2-cyclopropyl-1-(5-(pyridin-4-yl)-1H-imidazol-2-yl)ethyl)-12-fluoro-3H-spiro[benzo[e]pyrido[3,4-c]azocine-7,1′-cyclopropane]-2,5(6H,8H)-dione] | 0.183 | 0.0917 | > 10000 |  | 
2 | Cn1ccc(-c2cnc(C(CC3CC3)n3cc4c(cc3=O)-c3c(ccc(Cl)c3F)CC3(CC3)NC4=O)[nH]2)cc1=O (single isomer, unassigned) [Compound 68, (R*)-11-chloro-3-(2-cyclopropyl-1-(5-(1-methyl-2-oxo-1,2-dihydropyridin-4-yl)-1H-imidazol-2-yl)ethyl)-12-fluoro-3H-spiro[benzo[e]pyrido[3,4-c]azocine-7,1′-cyclopropane]-2,5(6H,8H)-dione] |  |  | > 10000 | 1.12 | 2.24
3 | Cn1ccc(-c2cnc([C@H](CC3CC3)n3cc4c(cc3=O)-c3c(ccc(Cl)c3F)CC3(CC3)NC4=O)[nH]2)cc1=O (single isomer, unassigned) [Compound 69, (S*)-11-chloro-3-(2-cyclopropyl-1-(5-(1-methyl-2-oxo-1,2-dihydropyridin-4-yl)-1H-imidazol-2-yl)ethyl)-12-fluoro-3H-spiro[benzo[e]pyrido[3,4-c]azocine-7,1′-cyclopropane]-2,5(6H,8H)-dione] | 0.108 | 0.0541 | 8080 |  | 
4 | O=C1NC2(CC2)Cc2ccc(Cl)c(F)c2-c2cc(=O)n3c(c21)CC[C@H]3c1ncc(-c2ccn3c(Br)cnc3c2)[nH]1 (single isomer, unassigned) [Compound 71, (*S)-12-(5-(3-Bromoimidazo[1,2-a]pyridin-7-yl)-1H-imidazol-2-yl)-7-chloro-8-fluoro-13,14-dihydro-2H-spiro[benzo[5,6]azocino[4,3-g]indolizine-3,1′-cyclopropane]-1,10(4H,12H)-dione] |  |  | > 10000 | > 5 | > 10
5 | Cc1nc2cc(-c3cnc([C@@H]4CCc5c6c(cc(=O)n54)-c4c(ccc(Cl)c4F)CC4(CC4)NC6=O)[nH]3)ccc2s1 (stereo in doubt) [Compound 4, (S*)-7-chloro-8-fluoro-12-(5-(2-methylbenzo[d]thiazol-5-yl)-1H-imidazol-2-yl)-13,14-dihydro-2H-spiro[benzo[5,6]azocino[4,3-g]indolizine-3,1′-cyclopropane]-1,10(4H,12H)-dione] |  |  | > 10000 | 1.15 | 2.29
6 | O=C1NC2(CC2)Cc2ccc(Cl)c(F)c2-c2cc(=O)n3c(c21)CC[C@H]3c1ncc(-c2ccn3cnnc3c2)[nH]1 (stereo in doubt) [Compound 15, (S*)-12-(5-([1,2,4]triazolo[4,3-a]pyridin-7-yl)-1H-imidazol-2-yl)-7-chloro-8-fluoro-13,14-dihydro-2H-spiro[benzo[5,6]azocino[4,3-g]indolizine-3,1′-cyclopropane]-1,10(4H,12H)-dione] |  |  | > 10000 | 2.91 | 5.82

Stronger by IC50 (human plasma kallikrein), values ahead:

Row | IC50 (Factor XIa; [1]) [µM] | Ki (Factor XIa) [µM] | IC50 (human plasma kallikrein) [nM] | Ki (Factor XIa; [2]) [µM] | IC50 (Factor XIa; [3]) [µM] | SMILES
7 | 0.0267 | 0.0133 | 3540 |  |  | O=C1NC2(CC2)Cc2ccc(Cl)c(F)c2-c2cc(=O)n3c(c21)CCC3c1ncc(-c2ccn3c(Br)cnc3c2)[nH]1 (single isomer, unassigned) [Compound 72, (*R)-12-(5-(3-Bromoimidazo[1,2-a]pyridin-7-yl)-1H-imidazol-2-yl)-7-chloro-8-fluoro-13,14-dihydro-2H-spiro[benzo[5,6]azocino[4,3-g]indolizine-3,1′-cyclopropane]-1,10(4H,12H)-dione]
8 | 0.0129 | 0.0064 | 1390 |  |  | O=C1NC2(CC2)Cc2ccc(Cl)c(F)c2-c2cc(=O)n([C@@H](CC3CC3)c3ncc(-c4ccncc4)[nH]3)cc21 (single isomer, unassigned) [Compound 67, (S*)-11-chloro-3-(2-cyclopropyl-1-(5-(pyridin-4-yl)-1H-imidazol-2-yl)ethyl)-12-fluoro-3H-spiro[benzo[e]pyrido[3,4-c]azocine-7,1′-cyclopropane]-2,5(6H,8H)-dione]
9 | 0.0132 | 0.0066 | 820 |  |  | O=C1NC2(CC2)Cc2ccc(Cl)c(F)c2-c2cc(=O)n3c(c21)CC[C@@H]3c1ncc(-c2ccn3cnnc3c2)[nH]1 (stereo in doubt) [Compound 18, (R*)-12-(5-([1,2,4]triazolo[4,3-a]pyridin-7-yl)-1H-imidazol-2-yl)-7-chloro-8-fluoro-13,14-dihydro-2H-spiro[benzo[5,6]azocino[4,3-g]indolizine-3,1′-cyclopropane]-1,10(4H,12H)-dione]
10 | 0.0019 | 0.0009 | 470 |  |  | O=C1NC2(CC2)Cc2ccc(Cl)c(F)c2-c2cc(=O)n3c(c21)CC[C@@H]3c1ncc(-c2ccn3ccnc3c2)[nH]1 (stereo in doubt) [Compound 8, (R*)-7-chloro-8-fluoro-12-(5-(imidazo[1,2-a]pyridin-7-yl)-1H-imidazol-2-yl)-13,14-dihydro-2H-spiro[benzo[5,6]azocino[4,3-g]indolizine-3,1′-cyclopropane]-1,10(4H,12H)-dione]
11 | 0.0023 | 0.0011 | 420 |  |  | O=C1NC2(CC2)Cc2ccc(Cl)c(F)c2-c2cc(=O)n3c(c21)CC[C@H]3c1ncc(-c2ccn3ccnc3c2)[nH]1 (stereo in doubt) [Compound 7, (S*)-7-chloro-8-fluoro-12-(5-(imidazo[1,2-a]pyridin-7-yl)-1H-imidazol-2-yl)-13,14-dihydro-2H-spiro[benzo[5,6]azocino[4,3-g]indolizine-3,1′-cyclopropane]-1,10(4H,12H)-dione]
12 | 0.0021 | 0.001 | 60 |  |  | Cc1nc2cc(-c3cnc([C@H]4CCc5c6c(cc(=O)n54)-c4c(ccc(Cl)c4F)CC4(CC4)NC6=O)[nH]3)ccc2s1 (stereo in doubt) [Compound 5, (R*)-7-chloro-8-fluoro-12-(5-(2-methylbenzo[d]thiazol-5-yl)-1H-imidazol-2-yl)-13,14-dihydro-2H-spiro[benzo[5,6]azocino[4,3-g]indolizine-3,1′-cyclopropane]-1,10(4H,12H)-dione]
13 | 0.0006 | 0.0003 | 60 |  |  | O=C1NC2(CC2)Cc2ccc(Cl)c(F)c2-c2cc(=O)n3c(c21)CC[C@@H]3c1ncc(-c2ccc3[nH]cnc3c2)[nH]1 (stereo in doubt) [Compound 6, (R*)-12-(5-(1H-benzo[d]imidazol-5-yl)-1H-imidazol-2-yl)-7-chloro-8-fluoro-13,14-dihydro-2H-spiro[benzo[5,6]azocino[4,3-g]indolizine-3,1′-cyclopropane]-1,10(4H,12H)-dione]
14 | 0.001 | 0.0005 | 20 |  |  | O=C1NC2(CC2)Cc2ccc(Cl)c(F)c2-c2cc(=O)n3c(c21)CC[C@@H]3c1ncc(-c2ccc3[nH]ncc3c2)[nH]1 (stereo in doubt) [Compound 19, (R*)-12-(5-(1H-indazol-5-yl)-1H-imidazol-2-yl)-7-chloro-8-fluoro-13,14-dihydro-2H-spiro[benzo[5,6]azocino[4,3-g]indolizine-3,1′-cyclopropane]-1,10(4H,12H)-dione]
